≈ marks a conversion by molar mass, not a printed value. Like-named read-outs stand apart in the source and are kept apart here. Blank lines part the entries; values can stand above or below the molecule they belong to.
Key:
[1] = system: HIV; settings: wild type of HIV as well as drug and multi drug resistant strains of HIV; cited from earlier work
[2] = Solubility data; assay type: physicochemical
Text: Table 1 lists solubility data of free base (E) 4-[[4-[[4-(2-cyanoethenyl)-2,6-dimethylphenyl]amino]-2-pyrimidinyl]amino]benzonitrile and of the compound of formula (I-a).

[3] = Chemical stability: storage at different humidity and temperature, HPLC for percentage of impurities; assay type: physicochemical
Experimental: Compound (I-a) was stored under different conditions of humidity and temperature. After storage, the salt was analyzed by High Performance Liquid Chromatography (HPLC) for percentage of impurities.

[4] = BCS classification; assay type: physicochemical
Text: A scientific framework for classifying drug substances based on their aqueous solubility and intestinal permeability is the Biopharmaceutics Classification System or BCS. […] Free base and fumarate salt may be classified as BCS class 2 compounds.

[5] = Hygroscopicity; assay type: physicochemical
[6] = Physical stability of the crystal structure after storage, infrared spectroscopy; assay type: physicochemical; settings: six weeks storage, conditions of Table 2, infrared spectroscopy
Experimental: The stability of the crystal structure of the compound of formula (I-a) was studied after storage for a period of six weeks under different conditions of humidity and temperature. The same conditions as described in Table 2 were applied. After storage the compound was analyzed with infrared spectroscopy.

Structure (SMILES): Cc1cc(C=CC#N)cc(C)c1Nc1ccnc(Nc2ccc(C#N)cc2)n1 [4-[[4-[[4-(2-cyanoethenyl)-2,6-dimethylphenyl]amino]-2-pyrimidinyl]amino]-benzonitrile]
HIV replication inhibiting activity [1]: excellent

Concentration in mg/ml, 0.01 N HCl ([2]; solubility in 0.01 N HCl): 0.013 mg/mL | solubility ([2]; water, solubility in water, read-out: Concentration in mg/ml, Water): 0.0009 mg/mL | solubility in water and in HCl (in words) ([2]; water): poor solubility | Sum of impurities % ([3]; 40° C./75% RH, 4 weeks): 0.62 %, w/w | Sum of impurities % ([3]; 40° C./75% RH, 8 weeks): 0.61 %, w/w | Sum of impurities % ([3]; 50° C./air, 4 weeks): 0.62 %, w/w | Sum of impurities % ([3]; 50° C./air, 8 weeks): 0.61 %, w/w | Sum of impurities % ([3]; RT/56% RH, 4 weeks): 0.58 %, w/w | Sum of impurities % ([3]; RT/56% RH, 8 weeks): 0.64 %, w/w | Sum of impurities % ([3]; RT/75% RH, 4 weeks): 0.59 %, w/w | Sum of impurities % ([3]; RT/75% RH, 8 weeks): 0.65 %, w/w | Sum of impurities % ([3]; RT/<5% RH, 4 weeks): 0.61 %, w/w | Sum of impurities % ([3]; RT/<5% RH, 8 weeks): 0.62 %, w/w | Sum of impurities % ([3]; Reference, 1 week): 0.58 %, w/w | chemical stability (in words) ([3]; storage conditions of Table 2): chemically stable | BCS class [4]: BCS class 2 | hygroscopicity [5]: not hygroscopic
Structure (SMILES): Cc1cc(/C=C/C#N)cc(C)c1Nc1ccnc(Nc2ccc(C#N)cc2)n1 [Compound of formula (I-a)]
stability of the crystal structure [6]: No changes in crystal structure were observed

solubility ([2]; 0.01 N HCl, simulated gastric fluid, solubility in 0.01 N HCl, read-out: Concentration in mg/ml, 0.01 N HCl): 0.019 mg/mL (≈ 51.9 µM) | Concentration in mg/ml, PEG 400 ([2]; solubility in PEG 400): 40 mg/mL | Concentration in mg/ml, Water ([2]; solubility in water): 0.00002 mg/mL | solubility in water and in HCl (in words) ([2]; water): poor solubility | BCS class [4]: BCS class 2
Structure (SMILES): Cc1cc(/C=C/C#N)cc(C)c1Nc1ccnc(Nc2ccc(C#N)cc2)n1 [Free base (E-isomer), (E) 4-[[4-[[4-(2-cyanoethenyl)-2,6-dimethylphenyl]amino]-2-pyrimidinyl]amino]benzonitrile]

— US20090215804A1, “FUMARATE OF 4- [[4- [[4- (2-CYANOETHENYL) -2,6-DIMETHYLPHENYL)AMINO] -2-PYRIMIDINYL]AMINO]BENZONITRILE” (priority 2004, published 2009)
